This test addresses Recombinant Human Poly(ADP-Ribose) Polymerase (PARP), PARP-1 (Homo sapiens (Human), UniProt P09874). The note with it: read-out: PARP-1 (Ki); Table 1; text calls the values EC50s.

SMILES strings stand for the structures. pKi: −log10 of the molar value.

Recombinant Human Poly(ADP-Ribose) Polymerase (PARP), PARP-1, sequence (P09874 whole entry): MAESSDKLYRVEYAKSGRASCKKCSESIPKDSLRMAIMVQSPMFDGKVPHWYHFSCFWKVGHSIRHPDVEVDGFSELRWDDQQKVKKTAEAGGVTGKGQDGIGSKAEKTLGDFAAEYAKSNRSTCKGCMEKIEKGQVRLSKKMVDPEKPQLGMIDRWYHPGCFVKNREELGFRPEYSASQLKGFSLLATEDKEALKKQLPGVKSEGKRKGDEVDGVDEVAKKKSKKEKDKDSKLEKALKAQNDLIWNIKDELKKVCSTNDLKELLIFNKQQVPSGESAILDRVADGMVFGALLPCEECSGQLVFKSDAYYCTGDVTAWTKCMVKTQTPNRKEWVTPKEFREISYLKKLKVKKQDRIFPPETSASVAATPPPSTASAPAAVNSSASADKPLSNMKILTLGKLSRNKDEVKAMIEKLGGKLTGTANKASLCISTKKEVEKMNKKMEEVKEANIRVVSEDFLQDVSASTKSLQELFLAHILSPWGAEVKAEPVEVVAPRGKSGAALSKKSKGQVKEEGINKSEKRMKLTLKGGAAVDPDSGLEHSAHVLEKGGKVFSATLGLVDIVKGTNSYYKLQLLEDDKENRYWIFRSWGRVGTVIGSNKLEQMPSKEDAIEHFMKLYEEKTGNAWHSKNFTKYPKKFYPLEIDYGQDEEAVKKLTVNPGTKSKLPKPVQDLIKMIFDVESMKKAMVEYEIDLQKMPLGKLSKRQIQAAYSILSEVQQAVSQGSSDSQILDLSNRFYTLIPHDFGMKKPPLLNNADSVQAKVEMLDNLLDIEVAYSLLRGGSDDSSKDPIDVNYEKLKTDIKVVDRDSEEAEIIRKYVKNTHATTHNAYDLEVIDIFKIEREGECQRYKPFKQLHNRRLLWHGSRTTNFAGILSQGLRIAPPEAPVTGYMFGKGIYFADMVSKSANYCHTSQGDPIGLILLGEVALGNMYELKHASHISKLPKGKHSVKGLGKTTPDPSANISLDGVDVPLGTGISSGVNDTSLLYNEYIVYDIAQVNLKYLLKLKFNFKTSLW

For `CN(C(=O)c1cc(Cc2n[nH]c(=O)c3c2NCCC3)ccc1F)C1CCN(C(=O)c2cccnc2)CC1` [Example 710, 2-fluoro-N-methyl-5-[(5-oxo-1,2,3,4,5,6-hexahydropyrido[2,3-d]pyridazin-8-yl)methyl]-N-[1-(pyridin-3-ylcarbonyl)piperidin-4-yl]benzamide], the negative logarithm of the Ki (pKi) (as a rule, the negative decadic logarithm of the Ki, by convention in mol/L) is 8.15.

Consider `CCN(CCNC(=O)OC(C)(C)C)C(=O)c1cc(Cc2n[nH]c(=O)c3c2CCCC3)ccc1F` [Example 711, tert-butyl 2-(ethyl{2-fluoro-5-[(4-oxo-3,4,5,6,7,8-hexahydrophthalazin-1-yl)methyl]benzoyl}amino)ethylcarbamate], for which the pKi was 8.52.

In the case of `CN(C(=O)c1cc(Cc2n[nH]c(=O)c3c2NCCC3)ccc1F)C1CCN(C(=O)c2ccncc2)CC1` [Example 712, 2-fluoro-N-(1-isonicotinoylpiperidin-4-yl)-N-methyl-5-[(5-oxo-1,2,3,4,5,6-hexahydropyrido[2,3-d]pyridazin-8-yl)methyl]benzamide], the pKi is 8.40.

As to `O=C(NC1CCN(C(=O)c2ccc3[nH]cnc3c2)CC1)c1cc(Cc2n[nH]c(=O)c3c2NCCC3)ccc1F` [Example 713, N-[1-(1H-benzimidazol-5-ylcarbonyl)piperidin-4-yl]-2-fluoro-5-[(5-oxo-1,2,3,4,5,6-hexahydropyrido[2,3-d]pyridazin-8-yl)methyl]benzamide], the pKi is 8.74.

Consider `O=C(NCCN1CCCC1=O)c1cc(Cc2n[nH]c(=O)c3c2CCCC3)ccc1F` [Example 714, 2-fluoro-5-[(4-oxo-3,4,5,6,7,8-hexahydrophthalazin-1-yl)methyl]-N-[2-(2-oxopyrrolidin-1-yl)ethyl]benzamide], for which the pKi was 9.10.

Regarding `CN(C(=O)c1cc(Cc2n[nH]c(=O)c3c2NCCC3)ccc1F)C1CCN(C(=O)c2ccco2)CC1` [Example 715, 2-fluoro-N-[1-(2-furoyl)piperidin-4-yl]-N-methyl-5-[(5-oxo-1,2,3,4,5,6-hexahydropyrido[2,3-d]pyridazin-8-yl)methyl]benzamide], the pKi was 8.40.

Take `CN(C(=O)c1cc(Cc2n[nH]c(=O)c3c2NCCC3)ccc1F)C1CCN(C(=O)[C@@H]2CSCN2)CC1` [Example 716, 2-fluoro-N-methyl-5-[(5-oxo-1,2,3,4,5,6-hexahydropyrido[2,3-d]pyridazin-8-yl)methyl]-N-{1-[(4R)-1,3-thiazolidin-4-ylcarbonyl]piperidin-4-yl}benzamide]: the pKi is 8.30.

With `CN(C(=O)c1cc(Cc2n[nH]c(=O)c3c2NCCC3)ccc1F)C1CCN(C(=O)c2cscn2)CC1` [Example 717, 2-fluoro-N-methyl-5-[(5-oxo-1,2,3,4,5,6-hexahydropyrido[2,3-d]pyridazin-8-yl)methyl]-N-[1-(1,3-thiazol-4-ylcarbonyl)piperidin-4-yl]benzamide], the negative logarithm of the Ki (pKi) was 8.40.

Regarding `CN(C(=O)c1cc(Cc2n[nH]c(=O)c3c2NCCC3)ccc1F)C1CCN(C(=O)c2cn[nH]c2)CC1` [Example 718, 2-fluoro-N-methyl-5-[(5-oxo-1,2,3,4,5,6-hexahydropyrido[2,3-d]pyridazin-8-yl)methyl]-N-[1-(1H-pyrazol-4-ylcarbonyl)piperidin-4-yl]benzamide], the negative-log Ki (pKi) was 8.59.

Regarding `CCN(CCN)C(=O)c1cc(Cc2n[nH]c(=O)c3c2CCCC3)ccc1F` [Example 719, N-(2-aminoethyl)-N-ethyl-2-fluoro-5-[(4-oxo-3,4,5,6,7,8-hexahydrophthalazin-1-yl)methyl]benzamide], the pKi is 8.15.

As for `O=C(c1ccncc1)N1CCN(C(=O)c2cc(Cc3n[nH]c(=O)c4c3CCCC4)ccc2F)CC1` [Example 720, 4-{4-fluoro-3-[(4-isonicotinoylpiperazin-1-yl)carbonyl]benzyl}-5,6,7,8-tetrahydrophthalazin-1(2H)-one], the pKi is 8.85.

For the molecule `CN(C(=O)c1cc(Cc2n[nH]c(=O)c3c2NCCC3)ccc1F)C1CCN(C(=O)c2ccccn2)CC1` [Example 721, 2-fluoro-N-methyl-5-[(5-oxo-1,2,3,4,5,6-hexahydropyrido[2,3-d]pyridazin-8-yl)methyl]-N-[1-(pyridin-2-ylcarbonyl)piperidin-4-yl]benzamide], the pKi is 8.52.

Take `O=C(c1cccnc1)N1CCN(C(=O)c2cc(Cc3n[nH]c(=O)c4c3CCCC4)ccc2F)CC1` [Example 722, 4-(4-fluoro-3-{[4-(pyridin-3-ylcarbonyl)piperazin-1-yl]carbonyl}benzyl)-5,6,7,8-tetrahydrophthalazin-1(2H)-one]: the pKi is 8.92.

Consider `O=C(c1cnc(O)c(Cl)c1)N1CCN(C(=O)c2cc(Cc3n[nH]c(=O)c4c3CCCC4)ccc2F)CC1` [Example 723, 4-[3-({4-[(5-chloro-6-hydroxypyridin-3-yl)carbonyl]piperazin-1-yl}carbonyl)-4-fluorobenzyl]-5,6,7,8-tetrahydrophthalazin-1(2H)-one], for which the negative logarithm of the Ki (pKi) was 8.89.

Take `O=C(NC1CCN(C(=O)c2cccnc2)CC1)c1cc(Cc2n[nH]c(=O)c3c2NCCC3)ccc1F` [Example 724, 2-fluoro-5-[(5-oxo-1,2,3,4,5,6-hexahydropyrido[2,3-d]pyridazin-8-yl)methyl]-N-[1-(pyridin-3-ylcarbonyl)piperidin-4-yl]benzamide]: the pKi is 8.15.

On to `CC(C)n1c(C(F)(F)F)nc2cc(C(=O)N3CCN(C(=O)c4cc(Cc5n[nH]c(=O)c6c5CCCC6)ccc4F)CC3)ccc21` [Example 725, 4-{4-fluoro-3-[(4-{[1-isopropyl-2-(trifluoromethyl)-1H-benzimidazol-5-yl]carbonyl}piperazin-1-yl)carbonyl]benzyl}-5,6,7,8-tetrahydrophthalazin-1(2H)-one], for which the pKi is 8.30.

Consider `O=C(NC1CCN(C(=O)c2ccco2)CC1)c1cc(Cc2n[nH]c(=O)c3c2NCCC3)ccc1F` [Example 726, 2-fluoro-N-[1-(2-furoyl)piperidin-4-yl]-5-[(5-oxo-1,2,3,4,5,6-hexahydropyrido[2,3-d]pyridazin-8-yl)methyl]benzamide], for which the negative-log Ki (pKi) is 8.40.

With `O=C(c1cc(Cc2n[nH]c(=O)c3c2CCCC3)ccc1F)N1CCN(C(=O)[C@@H]2CSCN2)CC1` [Example 727, 4-[4-fluoro-3-({4-[(4R)-1,3-thiazolidin-4-ylcarbonyl]piperazin-1-yl}carbonyl)benzyl]-5,6,7,8-tetrahydrophthalazin-1(2H)-one], the pKi was 8.85.

Turning to `CC(C)n1nnc2cc(C(=O)N3CCN(C(=O)c4cc(Cc5n[nH]c(=O)c6c5CCCC6)ccc4F)CC3)ccc21` [Example 728, 4-[4-fluoro-3-({4-[(1-isopropyl-1H-1,2,3-benzotriazol-5-yl)carbonyl]piperazin-1-yl}carbonyl)benzyl]-5,6,7,8-tetrahydrophthalazin-1(2H)-one], the pKi is 8.74.

With `O=C(NC1CCN(C(=O)[C@@H]2CSCN2)CC1)c1cc(Cc2n[nH]c(=O)c3c2NCCC3)ccc1F` [Example 729, 2-fluoro-5-[(5-oxo-1,2,3,4,5,6-hexahydropyrido[2,3-d]pyridazin-8-yl)methyl]-N-{1-[(4R)-1,3-thiazolidin-4-ylcarbonyl]piperidin-4-yl}benzamide], the pKi was 7.32.

Take `O=C(c1ccccn1)N1CCN(C(=O)c2cc(Cc3n[nH]c(=O)c4c3CCCC4)ccc2F)CC1` [Example 730, 4-(4-fluoro-3-{[4-(pyridin-2-ylcarbonyl)piperazin-1-yl]carbonyl}benzyl)-5,6,7,8-tetrahydrophthalazin-1(2H)-one]: the pKi was 8.89.

Values taken from patent US9283222B2 (priority 2006, dated 2016).
